Reference: patent US20250040539A1, “COMPOSITION COMPRISING AN ANTIMICROBIAL AGENT AND A CARBOXAMIDE” (BASF SE, priority 2021, published 2025)

How the values were obtained:
Type in all cases: cell-based
[1] = tested on: fungal mix: Aspergillus brasiliensis DSM 1988, Rhodotorula mucilaginosa DSM 13621, Yarrowia lipolytica DSM 8218; test: Preservative activity in a hard surface cleaner composition (HSC, pH 7.0) with 2-phenoxyethanol against fungal mix (Example 1.5); conditions: HSC + 1.35% PE, no amide (Comparative 2)
Method: A manual hard surface cleaner (HSC) of pH 7.0 containing the following components was used:
The samples were contaminated with a fungal mix consisting of: • Aspergillus brasiliensis DSM 1988 • Rhodotorula mucilaginosa DSM 13621 • Yarrowia lipolytica DSM 8218
The samples were inoculated with the fungal mix at day 0 and 7 to obtain 1-3×10E+05 CFU/ml inoculation in the test sample consisting of the above-defined hard surface cleaner HSC and stored at 25° C. for 21 days. CFU was determined before re-inoculation at day 7, and on days 14 and 21.

[2] = tested on: bacterial mix: Escherichia coli DSM 1576, Alcaligenes faecalis DSM 13644, Pseudomonas aeruginosa ATCC 15442, Staphylococcus aureus ATCC 6538, Burkholderia …; test: Preservative activity in a manual dishwashing composition (MDW, pH 7.1) with 2.0% 2-phenoxyethanol against bacterial mix (Example 2.4); conditions: MDW + 2.0% PE, no amide (Comparative 2)
Method: A manual dish wash detergent (MDW) of pH 7.1 containing the following components was used:
(§1) The samples were contaminated with a bacterial mix consisting of: • Escherichia coli DSM 1576 • Alcaligenes faecalis DSM 13644 • Pseudomonas aeruginosa ATCC 15442 • Staphylococcus aureus ATCC 6538 • Burkholderia cepacia DSM 7288 • Pseudomonas putida DSM 12735
The samples were inoculated with the bacterial mix at day 0 and 7 to obtain 10E+06 to 10E+07 CFU/ml inoculation in the test sample and stored at 25° C. for 21 days. CFU was determined before re-inoculation at day 7 and on days 14 and 21.
Any CFU value at day 7 (d7), day 14 (d14) or day 21 (d21) obtained with a sample according to the invention containing 2-phenoxyethanol and amide (MDW+2.0% PE+x % Amide) lower than the respective value of the “comparative 2” example (MOW+2.0% by weight of 2-phenoxyethanol) indicates a better performance.

[3] = tested on: bacterial mix: Escherichia coli DSM 1576, Alcaligenes faecalis DSM 13644, Pseudomonas aeruginosa ATCC 15442, Staphylococcus aureus ATCC 6538, Burkholderia …; test: Preservative activity in a manual dishwashing composition (MDW, pH 7.1) with 1.0% 2-phenoxyethanol against bacterial mix (Example 2.5); conditions: MDW + 1.0% PE, no amide (Comparative)
Method: A manual dish wash detergent (MOW) of pH 7.1 containing the following components was used:
as §1
The samples were inoculated with the bacterial mix at day 0 and 7 to obtain 10E+06 to 10E+07 CFU/ml inoculation in the test sample and stored at 25° C. for 21 days. CFU was determined before re-inoculation at day 7 and on day 21.
Any CFU value at day 7 (d7) or day 21 (d21) obtained with a sample according to the invention containing 2-phenoxyethanol and amide (MDW+1.0% PE+1.0% Amide) lower than the respective value of the comparative example (MDW+1% by weight of 2-phenoxyethanol) indicates a better performance.

[4] = tested on: bacterial mix: Escherichia coli DSM 1576, Alcaligenes faecalis DSM 13644, Pseudomonas aeuginosa ATCC 15442, Staphylococcus aureus ATCC 6538, Burkholderia …; test: Preservative activity of a basic composition (10% PG in water, pH 7) with 2-phenoxyethanol against bacterial contamination (Example 2.1); conditions: 10% PG + 0.4% PE, no amide (Comparative 2)
[5] = tested on: bacterial mix: Escherichia coli DSM 1576, Alcaligenes faecalis DSM 13644, Pseudomonas aeuginosa ATCC 15442, Staphylococcus aureus ATCC 6538, Burkholderia …; test: as above; conditions: 10% PG + 0.36% PE + 0.04% amide
Method: (§2) An aqueous composition of pH 7 comprising 10% by weight of propyleneglycol (PG) as organic solvent, 0.36% by weight of 2-phenoxyethanol (PE) as antimicrobial and 0.04% by weight of the amide listed in the below table was tested for its preserving activity against bacterial contamination (the weight percentages relate to the total weight of the composition). For this purpose, the samples were contaminated with a bacterial mix consisting of: • Escherichia coli DSM 1576 • Alcaligenes faecalis DSM 13644 • Pseudomonas aeuginosa ATCC 15442 • Staphylococcus aureus ATCC 6538 • Burkholderia cepacia DSM 7288 • Pseudomonas putida DSM 12735
The samples were inoculated with the bacterial mix at day 0, 7 and 14 to obtain 10E+06 to 10E+07 CFU/ml inoculation in the test samples (compositions listed in the below table) consisting of 10% by weight of propylene glycol in water and stored at 25° C. for 21 days.
CFU was determined before re-inoculation at days 7 and 14, and on day 21.

[6] = tested on: bacterial mix: Escherichia coli DSM 1576, Alcaligenes faecalis DSM 13644, Pseudomonas aeruginosa ATCC 15442, Staphylococcus aureus ATCC 6538, Burkholderia …; test: Preservative activity of a basic composition (10% PG in water, pH 7) with 4,4'-dichloro-2-hydroxydiphenyl ether (diclosan) against bacterial contamination (Example 2.2); conditions: day 7
Method: as §2, with “0.015%” for “0.36%”, “4,4′-dichloro-2-hydroxydiphenyl ether (diclosan)” for “2-phenoxyethanol (PE)”, “0.04 or 0.1%” for “0.04%”, “amides” for “amide”, “aeruginosa” for “aeuginosa”
The samples were inoculated with the bacterial mix at day 0 to obtain 10E+06 to 10E+07 CFU/ml inoculation in the test sample and stored at 25° C. for 7 days.
CFU was determined at day 7.
Any CFU value at day 7 (d7) obtained with a sample according to the invention containing diclosan and amide (10% PG+0.015% diclosan+Amide in water) lower than the respective value of the “comparative 3” example (10% by weight of propyleneglycol+0.015% by weight of 4,4′-dichloro-2-hydroxydiphenyl ether (diclosan) in water) indicates a better performance.

| SMILES | d7 [CFU/ml] ([1]; day 7) | d14 [CFU/ml] ([1]; day 14) | d21 [CFU/ml] ([1]; day 21) | d7 [CFU/ml] ([2]; day 7) | d14 [CFU/ml] ([2]; day 14) | d21 [CFU/ml] ([2]; day 21) | d7 [CFU/ml] ([3]; day 7) | d21 [CFU/ml] ([3]; day 21) | d7 [CFU/ml] ([4]; day 7) | d14 [CFU/ml] ([4]; day 14) | d21 [CFU/ml] ([4]; day 21) | d7 [CFU/ml] ([5]; day 7) | d14 [CFU/ml] ([5]; day 14) | d21 [CFU/ml] ([5]; day 21) | d7 [CFU/ml] ([6]; 10% PG + 0.015% diclosan + 0.1% amide) | d7 [CFU/ml] ([6]; 10% PG + 0.1% amide, no diclosan (Comparative 1b)) |
| --- | --- | --- | --- | --- | --- | --- | --- | --- | --- | --- | --- | --- | --- | --- | --- | --- |
| OCCOc1ccccc1 [PE, 2-phenoxyethanol, reference compound] | 37,000 CFU/ml | 36,000 CFU/ml | 3200 CFU/ml | 330 CFU/ml | 2,800 CFU/ml | 38,500 CFU/ml | 820 CFU/ml | 135 CFU/ml | 65,000 CFU/ml | >100,000 CFU/ml | >100,000 CFU/ml | – | – | – | – | – |
| CCCCCCCCCC(=O)N(C)C [n-Decanoyl-N,N-dimethylamide] | – | – | – | – | – | – | – | – | – | – | – | <10 CFU/ml | <10 CFU/ml | <10 CFU/ml | 43,000 CFU/ml | >100,000 CFU/ml |
